{"source": "patent US20090220421A1", "about": "“METHOD FOR SCREENING MTP-INHIBITING COMPOUNDS” (priority 2005, published 2009)", "key": {"[1]": {"tested_on": "secretion of VLDL", "assay": "Test Avivo: duration of action of MTP inhibitors on the secretion of VLDL", "assay_type": "in vivo, fatty fa/fa Zucker rats", "details": "between 6 and 8 hours after treatment", "description": "Determination of the Duration of Action of MTP Inhibitors on the Secretion of VLDL\nThis test makes it possible to evaluate the kinetics of inhibition of MTP-inhibiting compounds on the secretion of VLDL in fatty fa/fa Zucker rats (10-12 weeks old), which is an animal model characterised by hypersecretion of VLDL. The intensity and duration of inhibition are measured via the triton technique described above over a period ranging up to 8 hours after administration of the products. Since the duration of action of a product depends both of the administered dose and on its intrinsic characteristics, it is determined at a dose of makes it possible to reach a maximum inhibition (Imax) of at least 50% over a significant time interval. The comparison of the profile of duration of action of two compounds that may have different potentials is thus performed at respective doses that allow similar Imax values to be obtained."}, "[2]": {"tested_on": "secretion of apoB by HepG2 cells", "assay": "Test Avitro: kinetics (reversibility) of inhibition of secretion of apoB by HepG2 cells", "assay_type": "cell-based, human", "description": "Analyse of the Kinetics (Reversibility) of Inhibition of Secretion of apoB by HepG2 Cells:\nHepG2 cells are placed in contact with the products as described in the preceding paragraph and the secretion of ApoB is measured after 6 and 24 hours. The comparison is made at equipotent dose for the inhibition of secretion of apoB after 24 hours.\nNext, the products are removed from the culture medium (during changes of the medium at 0, 6, 24 and 48 hours) and the secretion of ApoB is again measured to determine the kinetics for return to normal secretion. The reversibility is judged satisfactory if the secretion, 24 hours after removal of the products, has a value greater than or equal to 70% of that of the controls (blank cells without compound)."}, "[3]": {"molecular_target": "T1, MTP (Mesocricetus auratus, UniProt P55158)", "T1 sequence (P55158 19-895)": "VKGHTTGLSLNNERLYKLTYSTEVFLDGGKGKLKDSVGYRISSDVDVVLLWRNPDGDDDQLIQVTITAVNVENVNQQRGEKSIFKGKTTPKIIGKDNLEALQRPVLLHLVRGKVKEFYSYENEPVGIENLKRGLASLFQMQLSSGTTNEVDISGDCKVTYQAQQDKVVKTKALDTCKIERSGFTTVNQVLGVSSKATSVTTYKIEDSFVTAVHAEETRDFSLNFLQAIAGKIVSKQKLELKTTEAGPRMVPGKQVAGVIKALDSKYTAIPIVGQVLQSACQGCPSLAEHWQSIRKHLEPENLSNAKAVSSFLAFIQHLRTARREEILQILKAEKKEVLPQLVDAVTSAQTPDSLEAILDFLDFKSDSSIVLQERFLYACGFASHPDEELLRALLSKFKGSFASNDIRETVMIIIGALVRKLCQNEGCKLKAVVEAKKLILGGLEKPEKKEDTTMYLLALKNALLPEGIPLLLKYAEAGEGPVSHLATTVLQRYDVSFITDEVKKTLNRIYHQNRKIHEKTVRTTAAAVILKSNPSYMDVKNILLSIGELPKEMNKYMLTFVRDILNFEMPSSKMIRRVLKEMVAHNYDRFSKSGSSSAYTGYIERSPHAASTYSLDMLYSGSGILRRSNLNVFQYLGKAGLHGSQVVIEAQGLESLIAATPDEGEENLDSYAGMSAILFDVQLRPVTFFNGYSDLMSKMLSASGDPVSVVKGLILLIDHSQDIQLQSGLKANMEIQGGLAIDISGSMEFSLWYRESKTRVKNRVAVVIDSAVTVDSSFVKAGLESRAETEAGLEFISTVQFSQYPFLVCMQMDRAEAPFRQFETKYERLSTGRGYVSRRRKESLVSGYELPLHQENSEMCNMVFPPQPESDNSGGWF", "assay": "Test D: MTP-inhibiting activity of the resynthesised metabolites", "assay_type": "biochemical", "details": "MTP-inhibiting activity of metabolites M1, M2 of the compound", "source_text": "Thus, Test A may also be preceded or followed, preferably followed, by one or more tests of inhibition of MTP and/or of inhibition of the secretion of VLDLs and/or of inhibition of the secretion of apoB, which are similar or even identical to the Tests B and/or C, respectively, defined above, but performed this time on the plasmatic metabolites of the candidate compounds. These tests on the metabolites will be referred to hereinbelow as Test D (metabolites/MTP inhibition test) and Test E (metabolites/apoB inhibition test).\n(§1) Potential metabolites M1 and M2 (of the compounds 1 or 2, respectively) are identified, resynthesised and evaluated for their MTP-inhibiting activity."}, "[4]": {"assay": "Test D: metabolisation/inactivation of the product in rodent liver microsomes", "assay_type": "in vitro ADME", "details": "0.5 mg/ml microsomes, 10 μM test product, 1 hour at 37° C., disappearance of parent by LC/MS/MS", "description": "Metabolisation/Inactivation of the Product\nThe products are evaluated for their capacity to be inactivated rapidly in vitro. […] The incubation medium is prepared by mixing together the following constituents: NAD (1 mM), glucose 6 phosphate (5 mM), NADP (1 mM), glucose 6 phosphate dehydrogenase (1 IU/ml), bovine serum albumin (1 mg/ml), TRIS (10 mM pH=7.6), MgCl2 (5 mM).\nA concentration of 0.5 mg/ml of microsomes (Biopredic) is placed in contact with 10 μM of test product. The mixture is incubated for 1 hour at 37° C. A fraction of the preparation is taken at the initial time, to which is added an equivalent volume of ethanol (quenching of the reaction by precipitation of the proteins). The same operation is repeated after 1 hour of incubation.\nThe samples obtained are centrifuged at 4000 rpm for 10 minutes, and the supernatant is analysed by LC/MS/MS. The percentage of disappearance of the parent product between T0 and T60 minutes is determined by calculating the areas of the chromatographic peaks.\nas §1"}, "[5]": {"tested_on": "apoB secretion in HepG2 cells", "assay": "Test C: inhibition of apoB secretion in the HepG2 human cell line (sandwich ELISA)", "assay_type": "cell-based", "details": "24 hours incubation, read-out: IC50 (concentration that produces a 50% inhibition of apoB secretion in the HepG2 cells)", "description": "Qualitative Analysis of the Secretion of apoB in the HepG2 Human Cell Line\nThe activity of a compound may be evaluated by measuring the inhibition of apoB secretion in HepG2 cells.\nThe HepG2 cells (ECACC-No. 85011430) are used as model in the study of the in vitro hepatic secretion of lipoproteins, as described by Dixon J. and Ginsberg H. (J. Lipid. Res., (1993), 34, 167-179).\nThe HepG2 cells are cultured in Dulbecco's modified Eagle's medium comprising 10% foetal calf serum (DMEM and FBS-Gibco) in 96-well plates under an atmosphere of 5% carbon dioxide for 24 hours (about 70% confluence).\nThe test compounds are dissolved at a concentration of 2 or 10 mM in dimethyl sulfoxide (DMSO). Serial dilutions (1:3.16) are made in DMSO and are added (1:200—Robot Multimek Beckman) to the growth medium (200 μl) and then finally incubated for 24 hours in the various wells containing the HepG2 cells.\nThe 24-hour culture supernatant diluted to 1:5 (phosphate-buffered saline: PBS comprising 1% bovine serum albumin) is tested according to a sandwich-ELISA method specific for human apoB.\nThe results, presented in Table II below for compounds 1 and 2, are expressed in terms of IC50, i.e. the concentration that produces a 50% inhibition of apoB secretion in the HepG2 cells."}, "[6]": {"molecular_target": "T2, microsomal triglyceride transfer protein (MTP) (Mesocricetus auratus, UniProt P55158)", "T2 construct": "The supernatant comprising the soluble MTP is dialysed; from tissue; host or cells: golden hamster liver microsomes, deoxycholate-solubilised supernatant", "T2 sequence (P55158 19-895)": "T1 sequence (P55158 19-895)", "assay": "Test B: qualitative analysis of the inhibition of MTP activity in vitro (labelled triglyceride transfer, SPA)", "assay_type": "biochemical, golden hamster", "details": "[3H]-triolein transfer from liposomes to LDL-biot, 18-24 hours at 37° C.; read-out: IC50 (concentration that allows a 50% inhibition of MTP)", "description": "Qualitative Analysis of the Inhibition of Mtp Activity In Vitro\nThe inhibition of the activity of microsomal triglyceride transfer protein (MTP) was tested by using the following operating protocol.\nThe inhibition of MTP activity with a compound may be quantified by observing the inhibition of the transfer of a labelled triglyceride, from a donor particle to an acceptor particle, in the presence of MTP. The procedure for the preparation of MTP is based on the method by Wetterau and Zilversmit (Biochem. Biophys. Acta (1986) 875, 610). A few grams of golden hamster liver are taken and then rinsed several times in a 250 mM sucrose solution at 0° C. All the following steps proceed at +4° C. […]\nThe reaction mixture is prepared in untreated ½ well white plates (Corning Costar) by addition, in the following order, of: 5 μl of HEPES 50 mM, NaCl 150 mM, BSA 0.1% (w/v), 0.05% sodium azide (w/v), pH 7.4 buffer; 5 μl of liposomes; 5 μl of LDL-biot; 5 μl of test products in DMSO 5 μl of MTP. After incubation for 18-24 hours at 37° C., the reaction is stopped by adding 100 μl of Amersham SPA (Scintillation Proximity Assay) beads coupled to streptavidin, and the radioactivity is counted using a Top Count (Packard) machine at least one hour later. The inhibition of the transfer of the triglycerides with a compound is reflected by a reduction in the transferred radioactivity. […]"}, "[7]": {"tested_on": "secretion of VLDL (hepatic MTP)", "assay": "Test F: inhibition of secretion of VLDL in rats (triton technique)", "assay_type": "in vivo, Male Wistar rats", "details": "100 mg/kg orally, between 1 hour and 6 hours after treatment, relative to controls", "description": "Inhibition of Secretion of VLDL in Rats:\nThe inhibition of hepatic MTP by compounds 1 and 2 was evaluated from their impact on the secretion of very low density lipoproteins (VLDLs). Male Wistar rats (220-280 g) receive a standard diet and water ad libitum. On the day of the experiment, the animals (n=7) are fasted and, one hour later, are treated with the compounds (100 mg/kg orally; excipient 0.5% methylcellulose). The secretion of VLDL is measured one hour after treatment, and for 5 hours, via the triton technique (WR 1339). When it is injected into the bloodstream, triton (400 mg/kg) prevents the catabolism of the VLDLs by inhibiting their lipolysis via lipoprotein lipase and by inhibiting their uptake by tissues. Measurement of the accumulation of triglycerides (TG) and of cholesterol, which is a component of VLDLs, thus makes is it possible to reveal the secretion of VLDL by the liver.\nThe effect of the product on the secretion of VLDL is thus evaluated between 1 hour and 6 hours after treatment at a dose of 100 mg/kg, i.e. between 0 and 5 hours after the intravenous injection of triton. Blood samples are taken at regular intervals under gaseous anaesthesia, to assay of the triglycerides and the cholesterol. […] The levels of inhibition relative to controls not treated with the compounds are determined, and the results are collated in Table V."}}}
{"smiles": "O=C(NC1CCN(Cc2cccnc2)CC1)c1ccccc1-c1ccc(C(F)(F)F)cc1", "note": "[Compound 1]", "values": [{"measurement": "residual inhibition of VLDL secretion", "setting": "[1]", "result": "absence of significant residual inhibition"}, {"measurement": "Secretion of apoB 24 hours after removal of the products (% of the controls)", "setting": "[2]", "result": ">85", "unit": "%"}, {"measurement": "Activity of the metabolites", "setting": "[3]", "result": "M1, M2 inactive"}, {"measurement": "Metabolisation (%/hour)", "setting": "[4]", "result": 88, "unit": "%/hour"}, {"measurement": "IC50", "setting": "[5]", "result": 18, "unit": "nM"}, {"measurement": "IC50", "setting": "[6]", "result": 320, "unit": "nM"}, {"measurement": "Inhibition of secretion of VLDL-TG", "setting": "[7]", "result": "−56", "unit": "%"}, {"measurement": "Inhibition of secretion of VLDL-cholesterol", "setting": "[7]", "result": "−45", "unit": "%"}]}
